Laboratory results as given in the NIST ThermoML archive (doi:10.1016/j.jct.2017.10.004).

Key:
[1] = 100 kPa, Liquid; for electrical conductivity: Alternating current cell with electrodes; for viscosity: Capillary tube (Ostwald / Ubbelohde) method; for mass density: Vibrating tube method
[2] = xn = mol fraction of the nth substance listed; details: 100 kPa, Liquid, x2 = 0; for viscosity: Capillary tube (Ostwald / Ubbelohde) method; for mass density: Vibrating tube method

Cn1cc[n+](C)c1.O=S(=O)([N-]S(=O)(=O)C(F)(F)F)C(F)(F)F [1,3-dimethylimidazolium bis((trifluoromethyl)sulfonyl)amide]
[1]
Details | electrical conductivity [S/m] | mass density [kg/m3] | viscosity [mPa·s]
298.15 K | 0.774 | 1575.42 | 39.43
303.15 K | 0.915 | 1570.25 | 32.51
308.15 K | 1.06 | 1565.01 | 27.47
313.15 K | 1.2 | 1559.73 | 23.43
318.15 K | 1.35 | 1554.49 | 20.25
323.15 K | 1.51 | 1549.34 | 17.72

O=C1CCCO1 [γ-butyrolactone] + Cn1cc[n+](C)c1.O=S(=O)([N-]S(=O)(=O)C(F)(F)F)C(F)(F)F
[2]
Details | mass density [kg/m3] | viscosity [mPa·s]
298.15 K | 1124.59 | 1.71
303.15 K | 1119.68 | 1.58
308.15 K | 1114.78 | 1.47
313.15 K | 1109.87 | 1.37
318.15 K | 1104.96 | 1.28
323.15 K | 1100.05 | 1.2
